# From ChEMBL document CHEMBL5331089, “Mucormycosis: A hidden mystery of fungal infection, possible diagnosis, treatment and development of new therapeutic agents” (Eur J Med Chem, 2023)
# Tests used:
# [1] = tested on: Syncephalastrum racemosum; assay: Antifungal activity against Syncephalastrum racemosum RCMB 016001 assessed as zone of inhibition measured after 24 hrs; assay type: functional
# [2] = tested on: Syncephalastrum racemosum; assay: Antifungal activity against Syncephalastrum racemosum assessed as fungal growth inhibition measured for 24 to 24 hrs by agar well diffusion assay; assay type: functional, organism-based
# Rhizopus arrhizus [3] = assay: Antifungal activity against Rhizopus oryzae clinical isolate assessed as fungal growth inhibition by checkerboard broth microdilution assay; assay type: functional
# Rhizomucor pusillus [4] = assay: Antifungal activity against Rhizomucor pusillus clinical isolate assessed as fungal growth inhibition measured after 48 hrs by microtitre plate reader analysis; assay type: functional
# Rhizomucor pusillus [5] = assay: Antifungal activity against Rhizomucor pusillus CN(M)231 assessed as fungal growth inhibition measured after 48 hrs by microtitre plate reader assay; assay type: functional
# Rhizopus arrhizus [6] = assay: Antifungal activity against Rhizopus oryzae clinical isolate RO-275 assessed as fungal growth inhibition measured after 24 hrs; assay type: functional
# Rhizopus arrhizus [7] = assay: Antifungal activity against Rhizopus oryzae CBS 109939 assessed as fungal growth inhibition by checkerboard broth microdilution assay; assay type: functional
# Rhizopus arrhizus [8] = assay: Antifungal activity against Rhizopus oryzae clinical isolate RO-449 assessed as fungal growth inhibition measured after 24 hrs; assay type: functional
# Mucor circinelloides [9] = assay: Antifungal activity against Mucor circinelloides MS 12 assessed as fungal growth inhibition measured after 48 hrs by plate reader assay; assay type: functional
# [10] = tested on: Syncephalastrum racemosum; assay: Antifungal activity against Syncephalastrum racemosum SZMC 2011 assessed as fungal growth inhibition measured after 24 hrs by microtitre plate reader assay; assay type: functional
# Mycotypha africana = assay: Antifungal activity against Mycotypha africana NRRL 2978 assessed as fungal growth inhibition measured after 24 hrs by microtitre plate reader assay; assay type: functional
# Rhizopus stolonifer = assay: Antifungal activity against Rhizopus stolonifer SZMC 11101 assessed as fungal growth inhibition measured after 24 hrs by microtitre plate reader assay; assay type: functional
# Rhizopus arrhizus [11] = assay: Antifungal activity against Rhizopus oryzae clinical isolate RO-969 assessed as fungal growth inhibition measured after 24 hrs; assay type: functional
# Rhizopus arrhizus [12] = assay: Antifungal activity against Rhizopus oryzae clinical isolate assessed as fungal growth inhibition measured after 24 to 72 hrs by microtitre plate reader analysis; assay type: functional; conditions: time 24-72 hrs
# Rhizopus arrhizus [13] = assay: Antifungal activity against Rhizopus arrhizus assessed as fungal growth inhibition; assay type: functional
# Absidia = assay: Antifungal activity against Absidia assessed as fungal growth inhibition measured upto 48 hrs by spectrophotometric analysis; assay type: functional
# Mucor circinelloides [14] = assay: Antifungal activity against Mucor circinelloides assessed as fungal growth inhibition measured at 36 to 48 hrs; assay type: functional; conditions: time 36-48 hrs
# Lichtheimia corymbifera = assay: Antifungal activity against Absidia corymbifera SZMC 2010 assessed as fungal growth inhibition measured after 48 hrs by microtitre plate reader assay; assay type: functional
# Rhizomucor miehei [15] = assay: Antifungal activity against Rhizomucor miehei CBS 360.92 assessed as fungal growth inhibition measured after 48 hrs by microtitre plate reader assay; assay type: functional
# [16] = tested on: Cunninghamella bertholletiae; assay: Antifungal activity against Cunninghamella bertholletiae clinical isolate assessed as fungal growth inhibition; assay type: functional
# Rhizopus arrhizus [17] = assay: Antifungal activity against Rhizopus oryzae clinical isolate assessed as fungal growth inhibition; assay type: functional
# Mucor circinelloides [18] = assay: Antifungal activity against Mucor circinelloides clinical isolate assessed as fungal growth inhibition; assay type: functional
# Rhizopus homothallicus = assay: Antifungal activity against Rhizopus homothallicus clinical isolate assessed as fungal growth inhibition; assay type: functional
# Rhizomucor miehei [19] = assay: Antifungal activity against environmental and clinical isolate Rhizomucor miehei assessed as fungal growth inhibition measured after 24 to 48 hrs by plate reader assay; assay type: functional; conditions: time 24-48 hrs
# Rhizomucor pusillus [20] = assay: Antifungal activity against environmental and clinical isolate Rhizomucor pusillus assessed as fungal growth inhibition measured after 24 to 48 hrs by plate reader assay; assay type: functional; conditions: time 24-48 hrs
# Rhizomucor pusillus [21] = assay: Antifungal activity against Rhizomucor pusillus assessed as fungal growth inhibition measured at 36 to 48 hrs; assay type: functional; conditions: time 36-48 hrs
# Mucorales = assay: Antifungal activity against Mucorales assessed as fungal growth inhibition measured 24 to 48 hrs; assay type: functional; conditions: time 24-48 hrs
# Rhizopus arrhizus [22] = assay: Antifungal activity against Rhizopus oryzae CBS 112.07 assessed as fungal growth inhibition measured after 48 hrs by microtitre plate reader assay; assay type: functional
# Rhizopus arrhizus [23] = assay: Antifungal activity against Rhizopus oryzae assessed as fungal growth inhibition at 12.5 ug/ml measured after 24 hrs by microtiter plate assay relative to control; assay type: functional
# Mucor circinelloides [24] = assay: Antifungal activity against Mucor circinelloides assessed as fungal growth inhibition at 100 ug/ml measured after 24 hrs by microtiter plate assay relative to control; assay type: functional
# Phycomyces blakesleeanus = assay: Antifungal activity against Phycomyces blakesleeanus assessed as fungal growth inhibition at 6.26 ug/ml measured after 24 hrs by microtiter plate assay relative to control; assay type: functional
# [25] = Antifungal activity against Rhizopus microsporus var. oligosporus NRRL 514 assessed as fungal growth inhibition measured after 48 hrs by microtitre plate reader assay; assay type: functional
compound,measurement,setting,value
CCOC(=O)N1C/C(=C\c2ccc(Cl)cc2)C(=O)[C@@]2(C1)[C@H](c1ccc(Cl)cc1)[C@H]1CCCN1[C@]21C(=O)Nc2ccccc21,inhibition zone (IZ),[1],39.46 mm
C[C@@H]1[C@H](O)[C@@H](C)/C=C/C=C/C=C/C=C/C=C/C=C/C=C/[C@H](O[C@@H]2O[C@H](C)[C@@H](O)[C@H](N)[C@@H]2O)C[C@@H]2O[C@](O)(C[C@@H](O)C[C@@H](O)[C@H](O)CC[C@@H](O)C[C@@H](O)CC(=O)O[C@H]1C)C[C@H](O)[C@H]2C(=O)O [AMPHOTERICIN B],IC50,[2],14.3 µg/mL
same,MIC,[2]; time 24-24 hrs,1.95 µg/mL
same,MIC,Rhizopus arrhizus [3],2 µg/mL
same,inhibition zone (IZ),[1],22 mm
same,MIC,Rhizomucor pusillus [4],2 µg/mL
same,MIC90,Rhizomucor pusillus [4],1 µg/mL
same,MIC,Rhizomucor pusillus [5],1 µg/mL
CC(C)c1c(C(=O)Nc2ccccc2)c(-c2ccccc2)c(-c2ccc(F)cc2)n1CC[C@@H](O)C[C@@H](O)CC(=O)O [ATORVASTATIN],MIC,Rhizopus arrhizus [6],64 µg/mL
same,MIC,Rhizopus arrhizus [7],32 µg/mL
same,MIC,Rhizopus arrhizus [8],64 µg/mL
same,MIC,Mucor circinelloides [9],16 µg/mL
same,MIC,[10],32 µg/mL
same,MIC,Mycotypha africana,8 µg/mL
same,MIC,Rhizopus stolonifer,64 µg/mL
same,MIC,Rhizopus arrhizus [11],64 µg/mL
same,MIC,Rhizopus arrhizus [12],32 µg/mL
OC(Cn1cncn1)(Cn1cncn1)c1ccc(F)cc1F [FLUCONAZOLE],inhibition zone (IZ),[1],22 mm
Nc1c(-c2cc(Cc3ccc(COc4ccccn4)cc3)no2)ccc[n+]1COP(=O)([O-])O [FOSMANOGEPIX],MEC,Rhizopus arrhizus [13],0.25 µg/mL
CCC(C)n1ncn(-c2ccc(N3CCN(c4ccc(OCC5COC(Cn6cncn6)(c6ccc(Cl)cc6Cl)O5)cc4)CC3)cc2)c1=O (stereo unspecified) [ITRACONAZOLE],MIC,Absidia,0.03 µg/mL
same,MIC,Mucor circinelloides [14],> 8 µg/mL
CC[C@H](C)C(=O)O[C@H]1C[C@@H](C)C=C2C=C[C@H](C)[C@H](CC[C@@H](O)C[C@@H](O)CC(=O)O)[C@H]21 [LOVASTATIN ACID],MIC90,Lichtheimia corymbifera,11 µg/mL
same,MIC90,Rhizomucor miehei [15],11 µg/mL
same,MIC90,Rhizomucor pusillus [5],11 µg/mL
CC[C@H](C)C(=O)O[C@H]1C[C@@H](C)C=C2C=C[C@H](C)[C@H](CC[C@@H]3C[C@@H](O)CC(=O)O3)[C@H]21 [LOVASTATIN],MIC,Rhizopus arrhizus [7],128 µg/mL
same,MIC,[16],32 µg/mL
same,MIC,Rhizopus arrhizus [17],32.6 µg/mL
same,MIC,Mucor circinelloides [18],16 µg/mL
same,MIC,[10],16 µg/mL
same,MIC,Rhizopus homothallicus,40 µg/mL
same,MIC,Rhizomucor miehei [19],64 µg/mL
same,MIC,Rhizomucor pusillus [20],1 µg/mL
same,MIC90,Rhizomucor pusillus [5],3.6 µg/mL
same,MIC,Rhizopus arrhizus [12],128 µg/mL
CC[C@@H]([C@H](C)O)n1ncn(-c2ccc(N3CCN(c4ccc(OC[C@@H]5CO[C@@](Cn6cncn6)(c6ccc(F)cc6F)C5)cc4)CC3)cc2)c1=O [POSACONAZOLE],MIC,Rhizomucor pusillus [21],> 8 µg/mL
same,MIC,Mucorales,1 µg/mL
CC(C)c1nc(N(C)S(C)(=O)=O)nc(-c2ccc(F)cc2)c1/C=C/[C@@H](O)C[C@@H](O)CC(=O)O [ROSUVASTATIN],MIC90,Lichtheimia corymbifera,33 µg/mL
same,MIC,Mucor circinelloides [9],32 µg/mL
same,MIC90,Rhizomucor miehei [15],11 µg/mL
same,MIC,[10],32 µg/mL
same,MIC,Mycotypha africana,8 µg/mL
same,MIC,Rhizopus stolonifer,64 µg/mL
same,MIC90,Rhizopus arrhizus [22],96 µg/mL
same,MIC90,Rhizomucor pusillus [5],11 µg/mL
CCC(C)(C)C(=O)O[C@H]1C[C@@H](C)C=C2C=C[C@H](C)[C@H](CC[C@@H]3C[C@@H](O)CC(=O)O3)[C@H]21 [SIMVASTATIN],MIC,Rhizopus arrhizus [7],64 µg/mL
same,MIC90,Lichtheimia corymbifera,96 µg/mL
same,MIC,[10],8 µg/mL
same,MIC90,Rhizomucor pusillus [5],11 µg/mL
CO[C@H]1C[C@@H]2CC[C@@H](C)[C@@](O)(O2)C(=O)C(=O)N2CCCC[C@H]2C(=O)O[C@H]([C@H](C)C[C@@H]2CC[C@@H](O)[C@H](OC)C2)CC(=O)[C@H](C)/C=C(\C)[C@@H](O)[C@@H](OC)C(=O)[C@H](C)C[C@H](C)/C=C/C=C/C=C/1C [SIROLIMUS],inhibition at 12.5 µg/mL,Rhizopus arrhizus [23],≤ 80%
same,inhibition at 100 µg/mL,Mucor circinelloides [24],≤ 80%
same,inhibition at 6.26 µg/mL,Phycomyces blakesleeanus,≤ 80%
CCC(C)(C)C(=O)O[C@H]1C[C@@H](C)C=C2C=C[C@H](C)[C@H](CC[C@@H](O)C[C@@H](O)CC(=O)O)[C@H]21 [TENIVASTATIN],MIC90,Lichtheimia corymbifera,11 µg/mL
same,MIC90,[25],33 µg/mL
same,MIC90,Rhizomucor pusillus [5],1.2 µg/mL
C[C@@H](c1ncncc1F)[C@](O)(Cn1cncn1)c1ccc(F)cc1F [VORICONAZOLE],MIC,Rhizomucor pusillus [21],> 8 µg/mL
same,MIC,Mucor circinelloides [14],> 8 µg/mL
